Activity calls are given as the source filed them.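 The calls were made as follows: active = compounds whose fitted half-maximal concentration for changing the GFP signal is at or below a set limit; inactive = the rest.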

This experiment can be described thus: TOR pathway RPL19A-GFP modulators, concentration series – cell-based, S. cerevisiae, flow cytometry, MLPCN hits, dose response (AID 2740).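 Also: background is signal of the same compound in parental non-GFP s288c yeast.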 The settings on record: S. cerevisiae RPL19A-GFP strain, flow cytometry fluorescence, 3 h; at 33 µM (top of the series). In general terms: Flow cytometry measures light scatter and fluorescence of single cells or particles in a stream.

Take `O=C1N(c2ccccc2C(F)(F)F)O[C@@]1(c1ccccc1)C1CCCC1`: the GFP fluorescence, lower = active (kMESF (background-subtracted)) was 46 (inactive). `Cc1cc(C)c(C)c(S(=O)(=O)ON2C(=O)c3ccccc3C2=O)c1C`: the GFP fluorescence, lower = active (kMESF (background-subtracted)) was 49.1 (inactive). `O=C(NC(=S)NNC(=O)c1cnccn1)c1ccc(F)cc1`: the GFP fluorescence, lower = active (kMESF (background-subtracted)) was 31.9 (inactive). Consider `Cc1[nH]n(-c2ncc(-c3ccccc3)s2)c(=O)c1C(c1ccc(Cl)cc1)C(C#N)C#N` (centres undefined), for which the GFP fluorescence, lower = active (kMESF (background-subtracted)) was 42 (inactive).

For `COc1cccc(C(=O)Nc2nnc(-c3ccc(Cl)cc3)o2)c1`, the GFP fluorescence, lower = active (kMESF (background-subtracted)) is 35.5 (inactive). For `O=C(O)/C=C/C(=O)c1ccc2c(c1)CCc1ccccc1-2` the value was 16.8 (inactive); for `Cc1c(NC2=C(Cl)C(=O)N(c3ccccc3Cl)C2=O)c(=O)n(-c2ccccc2)n1C`, 38.7 (inactive). As to `Cc1ccc(N=c2ssnc2Cl)cc1`, the GFP fluorescence, lower = active (kMESF (background-subtracted)) is 23 (inactive).

With `Cc1cc(C)c(S(=O)(=O)N2CCC(C(=O)NCc3ccc(Cl)cc3Cl)CC2)c(C)c1`, the GFP fluorescence, lower = active (kMESF (background-subtracted)) is 31.7 (inactive).

`O=[N+]([O-])c1cc(O)c2ncccc2c1`: the GFP fluorescence, lower = active (kMESF (background-subtracted)) is 45 (inactive). Turning to `O=C1C=C(c2ccc(Cl)cc2)C(=O)N1Nc1ccccc1`, the GFP fluorescence, lower = active (kMESF (background-subtracted)) was 18.7 (inactive). Regarding `O=[N+]([O-])c1ccc(Sc2nc3ccccc3o2)c([N+](=O)[O-])c1`, the GFP fluorescence, lower = active (kMESF (background-subtracted)) is 45.5 (inactive). Turning to `C=CCOc1cccc(C(=O)/C=C2/C(=O)Nc3ccccc32)c1`, the GFP fluorescence, lower = active (kMESF (background-subtracted)) is 40.7 (inactive). Consider `CC(Oc1cc2oc(=O)c3c(c2cc1Cl)CCC3)C(=O)NCCN1CCOCC1` (centres undefined), for which the GFP fluorescence, lower = active (kMESF (background-subtracted)) was 37.8 (inactive). Consider `Cc1ccc(C2=NN(S(C)(=O)=O)C(c3ccc4c(c3)OCO4)C2)cc1` (centres undefined), for which the GFP fluorescence, lower = active (kMESF (background-subtracted)) was 44.8 (inactive). With `CCSc1nnc(NC(=O)c2ccccn2)s1`, the GFP fluorescence, lower = active (kMESF (background-subtracted)) was 50 (inactive).

Turning to `COc1cc(CNC(=O)CCCCCCC(C)C)ccc1O`, the GFP fluorescence, lower = active (kMESF (background-subtracted)) is 48.5 (inactive). Regarding `COc1ccc(C(c2c(C)[nH]n(C(N)=S)c2=O)C(C#N)C#N)cc1` (centres undefined), the GFP fluorescence, lower = active (kMESF (background-subtracted)) is 24.7 (inactive). Turning to `COc1ccc(N=Cc2nc(-c3ccccc3)oc2OC(=O)c2ccccc2)cc1`, the GFP fluorescence, lower = active (kMESF (background-subtracted)) is 46.2 (inactive). For the molecule `COc1ccccc1[C@]1(C)ON(c2ccccc2C(F)(F)F)C1=O`, the GFP fluorescence, lower = active (kMESF (background-subtracted)) is 30.8 (inactive).

On to `CC(C)(C)c1cc(C(c2cccnc2)N2CCN(CCO)CC2)cc(C(C)(C)C)c1O` (centres undefined), for which the GFP fluorescence, lower = active (kMESF (background-subtracted)) was 4.63 (inactive).

As for `COc1ccc(-c2cc3nc4n(c(=O)c3s2)CCC4)cc1`, the GFP fluorescence, lower = active (kMESF (background-subtracted)) is 21.6 (inactive). Regarding `COc1ccc(NC2=C(Cl)C(=O)N(CCc3ccccc3)C2=O)c(OC)c1`, the GFP fluorescence, lower = active (kMESF (background-subtracted)) is 39.1 (inactive). `Oc1c(CN2CCN(c3ccccc3)CC2)cc(Br)c2cccnc12`: the GFP fluorescence, lower = active (kMESF (background-subtracted)) is 38.4 (inactive). As to `CCCCCn1c(=O)c(C(=O)Nc2nc3ccccc3[nH]2)c(O)c2ccccc21`, the GFP fluorescence, lower = active (kMESF (background-subtracted)) was 43.6 (inactive). Turning to `C=CCOc1ccc(C(=O)/C=C2/C(=O)Nc3ccccc32)cc1`, the GFP fluorescence, lower = active (kMESF (background-subtracted)) is 37.9 (inactive).

In the case of `CCOc1ccc(C(C)=O)cc1N1C(=O)C2C3C=CC(O3)C2C1=O` (centres undefined), the GFP fluorescence, lower = active (kMESF (background-subtracted)) was 42.4 (inactive). Regarding `CC(=O)Oc1ccc(N2C(=O)C3C4C=CC(CO)(O4)C3C2=O)cc1` (centres undefined), the GFP fluorescence, lower = active (kMESF (background-subtracted)) is 38.8 (inactive). Regarding `CC1=CC(=O)C(C(C)C)=C/C1=N/OS(=O)(=O)c1ccccc1`, the GFP fluorescence, lower = active (kMESF (background-subtracted)) is 23.9 (inactive).

The values above are taken from PubChem BioAssay AID2740 (NMMLSC, 2010).
